Data as given in patent US20150030989A1, “Handheld Device for Delivering Photodynamic Therapy” (The Forsyth Institute, priority 2012, published 2015).
Where two headings read alike, the source gives them in different places. Blank lines part the entries; values can stand above or below the molecule they belong to.

Key:
osteoblasts [1] = conditions: for reduction of viability, MB alone: human, 50 μg/mL
Method: (§1) In this study, the viability of human gingival fibroblasts and osteoblasts in vitro was assessed after exposure to methylene blue (MB) and red light with parameters similar to those that may be applied in a clinical setting. […] Both cell types were sensitized with 50 μg/mL methylene blue followed by exposure to red light at 665 nm for 5 minutes with an irradiance of 10, 20, and 40 mW/cm^2. The power densities were 10, 20, and 40 mW/cm^2, corresponding with energy fluencies of 3, 6, and 12 J/cm^2, respectively. In previous studies, light with a power density of 100 mW/cm^2 was used for killing endodontic pathogens within infected root canal specimens in vitro. A portion of that light propagates in dentin and escapes from the tooth. The power density of light escaping from the root specimen ranges from 5 to 10 mW/cm^2 depending on the morphology of the root canal system. In the present study, up to fourfold greater power densities were used.
(§2) After photodynamic therapy (PDT), cell viability and mitochondrial activity were evaluated by the neutral red and MTT assay, respectively. The assessment of PDT-induced apoptosis was investigated by western blot analysis using cleaved poly(ADPribose) polymerase-specific antibodies. […] Osteoblasts (A) and fibroblasts (B) were treated with MB only (lane MB+), light only (lane L+), or light and MB (lane L+MB+). Control cultures were left untreated (lane −) or treated with 200 μmol/L staurosporine (lane +). Twenty-four hours after treatment, cultures were stopped and analyzed by western blot using cleaved PARP− and b-actin-specific antibodies.

[2] = system: Porphyromonas endodontalis (ATCC 35406); test: PDT on endodontic pathogens in planktonic phase: P. endodontalis; assay type: cell-based; conditions: methylene blue 25 μg/ml, 5 minutes; for Surviving species, PDT: red light 665 nm 30 J/cm^2
Method: (§3) The effects of PDT were investigated on endodontic pathogens in planktonic phase as well as on Enterococcus faecalis biofilms in experimentally infected root canals of extracted teeth. Strains of Porphyromonas gingivalis (ATCC 33277), P. intermedia (ATCC 25611), Fusobacterium nucleatum nucleatum (ATCC 25586), Peptostreptocococcus micros (ATCC 33270), Porphyromonas endodontalis (ATCC 35406), and E. faecalis (ATCC 29212) were sensitized with methylene blue (MB) (25 μg/ml) for 5 minutes followed by exposure to res light of 665 nm with an energy fluence of 30 J/cm^2. […] In Table 1, Surviving species are expressed as percentage-of-controls receiving neither methylene blue nor light. Each value is the mean of values obtained from 2 to 4 experiments (±standard error). The same concentration of MB in combination with red light (222 J/cm^2) was able to eliminate 97% of E. faecalis biofilm bacteria in root canals. Light was uniformly delivered at 360 degrees in the root canal system with a flexible optical fiber with cylindrical diffusers and a diameter of 500 μm. Table 1 presents the survival of endodontic bacteria after their incubation only with methylene blue (25 μg/ml) or methylene blue (25 μg/ml) and red light (30 J/cm^2): […]

[3] = system: Porphyromonas gingivalis (ATCC 33277); test: PDT on endodontic pathogens in planktonic phase: P. gingivalis; assay type: cell-based; conditions: methylene blue 25 μg/ml, 5 minutes; for Surviving species, PDT: red light 665 nm 30 J/cm^2
Method: as §3

[4] = system: Enterococcus faecalis biofilms; test: PDT on E. faecalis biofilms in experimentally infected root canals of extracted teeth; assay type: cell-based; conditions: MB 25 μg/ml in combination with red light 222 J/cm^2
[5] = system: human gingival fibroblasts; test: Cell viability, neutral red assay, fibroblasts; assay type: cell-based; conditions: 50 μg/mL MB, no light, 0 and 24 hours
Method: as §1
After photodynamic therapy (PDT), cell viability and mitochondrial activity were evaluated by the neutral red and MTT assay, respectively. The assessment of PDT-induced apoptosis was investigated by western blot analysis using cleaved poly(ADPribose) polymerase-specific antibodies. […] Twenty-four hours after treatment, cultures were stopped and analyzed by western blot using cleaved PARP− and b-actin-specific antibodies.

[6] = system: P. intermedia (ATCC 25611); test: PDT on endodontic pathogens in planktonic phase: P. intermedia; assay type: cell-based, Prevotella intermedia; conditions: methylene blue 25 μg/ml, 5 minutes; for Surviving species, PDT: red light 665 nm 30 J/cm^2
Method: as §3

E. faecalis (ATCC 29212) [7] = system: E. faecalis (ATCC 29212)
[8] = system: Fusobacterium nucleatum nucleatum (ATCC 25586); test: PDT on endodontic pathogens in planktonic phase: F. nuc. nuc.; assay type: cell-based; conditions: methylene blue 25 μg/ml, 5 minutes, mean ± standard error; for Surviving species, PDT: red light 665 nm 30 J/cm^2
Method: as §3

E. faecalis (ATCC 29212) [9] = test: PDT on endodontic pathogens in planktonic phase: E. faecalis; assay type: cell-based, Enterococcus faecalis
Method: as §3

[10] = system: Peptostreptocococcus micros (ATCC 33270); test: PDT on endodontic pathogens in planktonic phase: P. micros; assay type: cell-based; conditions: methylene blue 25 μg/ml, 5 minutes, mean ± standard error; for Surviving species, PDT: red light 665 nm 30 J/cm^2
Method: as §3

osteoblasts [11] = test: PDT-induced apoptosis, western blot for cleaved PARP, osteoblasts; assay type: cell-based, human; conditions: twenty-four hours after treatment
Method: as §2

[12] = system: human gingival fibroblasts; test: PDT-induced apoptosis, western blot for cleaved PARP, fibroblasts; assay type: cell-based; conditions: twenty-four hours after treatment
Method: as §2

[13] = system: human gingival fibroblasts; conditions: 24 h, 50 μg/mL
Method: (§4) FIG. 7 presents two bar graphs on the growth of methylene blue (MB)-sensitized gingival fibroblasts and osteoblasts as determined by the MTT assay after their exposure to red light.
as §1, §2

osteoblasts [14] = system: osteoblasts
Method: as §4, §1, §2

[15] = system: multispecies root canal biofilms comprising Actinomyces israelii, Fusobacterium nucleatum subspecies nucleatum, Porphyromonas gingivalis, and Prevotella …; test: PDT on multispecies root canal biofilms in extracted human teeth, CFU assay; assay type: cell-based; conditions: MB 25 μg/mL 10 minutes, red light 665 nm 30 J/cm^2

reduction of mitochondrial activity, L40+MB+ [13]: 18.5%
reduction of mitochondrial activity, MB alone (osteoblasts [14]; human, 0 h, 50 μg/mL): 3.1%
reduction of mitochondrial activity, L20+MB+ (osteoblasts [14]; human, 24 h, 50 μg/mL): approximately 34%
reduction of mitochondrial activity, L40+MB+ (osteoblasts [14]; human, 24 h, 50 μg/mL): approximately 34%
reduction of mitochondrial activity, MB alone (osteoblasts [14]; human, 24 h, 50 μg/mL): 13.5%
SMILES: CN(C)c1ccc2nc3ccc(=[N+](C)C)cc-3sc2c1 [methylene blue]
reduction of viability, MB alone (osteoblasts [1]; 0 h): 9.4%
reduction of viability, MB alone (osteoblasts [1]; 24 h): 14.6%
Surviving species, only methylene blue ([2]; no light): 0 percentage-of-controls
Surviving species, PDT [2]: 0 percentage-of-controls
Surviving species, PDT ([2]; listed as MB): fully eliminated
Surviving species, only methylene blue ([3]; no light, mean ± standard error): 6.7 ± 0.1 percentage-of-controls
Surviving species, PDT [3]: 0 percentage-of-controls
Surviving species, PDT ([3]; listed as MB): fully eliminated
E. faecalis biofilm bacteria in root canals eliminated [4]: 97%
effect of MB alone on viability [5]: no effect
Surviving species, only methylene blue ([6]; no light): 0 percentage-of-controls
Surviving species, PDT [6]: 0 percentage-of-controls
Surviving species, PDT ([6]; listed as MB): fully eliminated
reduction of E. faecalis viability, PDT (E. faecalis (ATCC 29212) [7]; 6.25 μg/ml MB 5 minutes, light 665 nm 60 J/cm^2): 77.5%
reduction of bacterial viability, MB alone (E. faecalis (ATCC 29212) [7]; 6.25 μg/ml MB, no light): 19.5%
Surviving species, only methylene blue ([8]; no light): 5.5 ± 0.4 percentage-of-controls
Surviving species, PDT [8]: 0 percentage-of-controls
Surviving species, PDT ([8]; listed as MB): fully eliminated
Surviving species, only methylene blue (E. faecalis (ATCC 29212) [9]; methylene blue 25 μg/ml, 5 minutes, no light, mean ± standard error): 94.5 ± 17.6 percentage-of-controls
Surviving species, PDT (E. faecalis (ATCC 29212) [9]; methylene blue 25 μg/ml, 5 minutes, red light 665 nm 30 J/cm^2, mean ± standard error): 47 ± 12.1 percentage-of-controls
killing (E. faecalis (ATCC 29212) [9]; planktonic, MB 25 μg/ml 5 minutes, light 665 nm 30 J/cm^2): 53%
Surviving species, only methylene blue ([10]; no light): 21 ± 10.6 percentage-of-controls
Surviving species, PDT [10]: 0 percentage-of-controls
Surviving species, PDT ([10]; listed as MB): fully eliminated
PARP cleavage, light and MB (osteoblasts [11]; lane L+MB+): Neither treatment resulted in PARP cleavage
PARP cleavage, MB only (osteoblasts [11]; lane MB+): Neither treatment resulted in PARP cleavage
PARP cleavage, light and MB ([12]; lane L+MB+): Neither treatment resulted in PARP cleavage
PARP cleavage, MB only ([12]; lane MB+): Neither treatment resulted in PARP cleavage
reduction of colony-forming unit counts (CFU), PDT [15]: up to 80%
mean CFU levels, combination of light and MB versus control or MB alone ([15]; FIG. 5): significantly lower than either control or MB alone

effect of sodium hypochlorite on osteoblasts, neutral red assay (osteoblasts [1]): completely eliminated cells
effect of sodium hypochlorite on osteoblasts, MTT assay (osteoblasts [14]): completely eliminated cells
SMILES: OCl [sodium hypochlorite]
